Data published in PubChem BioAssay AID1919005 (Molecular Pharmacology Branch, DTP, NCI, 2023).
One block for each molecule: values may come before it.

Tested on: 855422-203-R-J1-PDC complex spheroid growth
Test: Anticancer human tumor 855422-203-R-J1-PDC patient-derived bladder carcinoma cell line growth inhibition [AhR]
Conditions: for IC50: curve of first compound; for viability, T/C: stronger effect = lower value
Text: Multicellular complex tumor spheroid response to aryl hydrocarbon receptor antagonists in combination with a variety of drugs and investigational agents in selected tumor cell lines
The current study was undertaken to assess response to aryl hydrocarbon receptor antagonists in combination with standard-of-care drugs and investigational agents in solid tumor complex spheroid models. Complex spheroids include a stromal component modeled by human endothelial cells (HUVEC) and fibroblasts modeled by human mesenchymal stem cells (MSCs). The concentration ranges selected for each drug and investigational agent were based upon clinically achievable concentrations if the clinical Cmax of the agent was known.
Compounds. The drugs and investigational agents: BAY 2416964 (NSC825713), GNF351 (NSC835774), CH-223191 (NSC835775), CPI-455 (NSC825282), aza-TdCyd (NSC777586), decitabine (NSC127716), belinostat (NSC758774), entinostat (NSC756642), pevonedistat (NSC761192), tazemetostat (NSC777109), talazoparib (NSC765396), olaparib (NSC753686), selinexor (NSC780203), nedisertib (M3814, NSC802822), bortezomib (NSC756655), venetoclax (NSC766270), doxorubicin (NSC123127), elimusertib (BAY189344, NSC800525), ceralasertib (AZD6738, NSC777638), TAK-243 (NSC785004), alisertib (NSC759677), etoposide (NSC141540), topotecan (NSC609699), eribulin (NSC707389), gemcitabine (NSC613327), carboplatin (NSC241240), cisplatin (NSC119875), and SN-38 (NSC673596) were obtained from the National Cancer Institute (NCI) Developmental Therapeutics Program Chemical Repository (32). The FDA-approved anticancer drug set is available from the Developmental Therapeutics Program at https://dtp.cancer.gov/organization/dscb/obtaining/available plates.htm. […] The stock solutions were prepared in dimethyl sulfoxide (DMSO, Sigma-Aldrich, St. Louis, MO, cat. D2650), except for the platinum compounds which were prepared in saline (Quality Biological, Gaithersburg, MD, cat. 114-055-101), at 800-fold the tested concentration and stored at -70 degrees C prior to their use. All drugs and investigational agents were tested over a range starting from a high concentration at or near the clinical Cmax and decreasing in half-log increments. If the clinical Cmax for an agent had not been determined, the highest concentration tested was 10 microM (Table 1).
Cell Culture. All cells were maintained in an incubator at 37 degrees C and 5% CO2 with 95% humidity. The PDC lines were cultured according to standard operating procedures established by the NCI PDMR (https://pdmr.cancer.gov). Briefly, all PDCs were thawed and cultured in Matrigel-coated flasks prepared with a working solution of 1X Ham's F-12 nutrient mix, without supplementation (Invitrogen, Waltham, MA, cat. 11765054), 100 U/mL penicillin-streptomycin (Invitrogen, cat. 15140122), and 2.5% Matrigel (Corning Inc., Corning, NY, cat. 354248) for the first three passages. All PDCs were cultured in complete DMEM/F-12 media containing advanced DMEM/F-12 (Invitrogen, cat. 12634028), 4.9% defined fetal bovine serum, heat inactivated (HyClone Laboratories Inc., Logan, UT, cat. SH30070.03HI), 389 ng/mL hydrocortisone (Sigma-Aldrich, cat. H4001), 9.7 ng/mL human EGF recombinant protein (Invitrogen, cat. PHG0313), 23.4 microg/mL adenine (Sigma-Aldrich, cat. A2786), 97.3 U/mL penicillin-streptomycin (Invitrogen, cat. 15140122), 1.9 mM L-glutamine (Invitrogen, cat. 25030081), and 9.7 microM Y-27632 dihydrochloride (Tocris Bioscience, Bristol, United Kingdom, cat. 1254). The PDCs were cultured in complete DMEM/F12 media without 10 microM Y-27632 dihydrochloride for at least two passages prior to the screen. The established cell lines NCI-H1341 and […] were cultured in DMEM/F-12, HEPES (Invitrogen, cat. 11330032), 5% defined fetal bovine serum (HyClone Laboratories Inc., cat. SH30070.03), ITS premix universal culture supplement [insulin (5 microg/mL), transferrin (5 microg/mL), and selenious acid (5 ng/mL)] […]

[1] = second compound 0.1 µM, first compound 0.0316 µM
[2] = second compound 0.1 µM, first compound 0.1 µM
[3] = second compound 0.316 µM, first compound 0.0316 µM
[4] = second compound 0.316 µM, first compound 0.1 µM
[5] = second compound 1 µM, first compound 0.0316 µM
[6] = second compound 1 µM, first compound 0.1 µM
[7] = second compound 3.16 µM, first compound 0.0316 µM
[8] = second compound 3.16 µM, first compound 0.1 µM
[9] = second compound 10 µM, first compound 0.0316 µM
[10] = second compound 10 µM, first compound 0.1 µM
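Note: spheroids exposed to agents for seven days before readout.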
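Throughout, for viability, T/C: percent of DMSO vehicle control luminescence viability.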

IC50 (second compound 0.1 µM): 37.8 nM
IC50 (second compound 0.316 µM): 33.7 nM
IC50 (second compound 1 µM): 25.7 nM
IC50 (second compound 3.16 µM): 18.1 nM
IC50 (second compound 10 µM): < 0.316 nM
SMILES: CC[C@@]1(O)C(=O)OCc2c1cc1n(c2=O)Cc2cc3c(CN(C)C)c(O)ccc3nc2-1 + Cc1cncc(-c2nc(NCCc3c[nH]c4ccccc34)c3ncn(C(C)C)c3n2)c1
viability, T/C (second compound 0.1 µM, first compound 0.000316 µM): 95.4%
viability, T/C (second compound 0.1 µM, first compound 0.001 µM): 85.9%
viability, T/C (second compound 0.1 µM, first compound 0.00316 µM): 103%
viability, T/C (second compound 0.1 µM, first compound 0.01 µM): 91.5%
viability, T/C [1]: 56.8%
viability, T/C [2]: 13.1%
viability, T/C (second compound 0.316 µM, first compound 0.000316 µM): 89.6%
viability, T/C (second compound 0.316 µM, first compound 0.001 µM): 87.1%
viability, T/C (second compound 0.316 µM, first compound 0.00316 µM): 93.6%
viability, T/C (second compound 0.316 µM, first compound 0.01 µM): 89.6%
viability, T/C [3]: 52.2%
viability, T/C [4]: 11.6%
viability, T/C (second compound 1 µM, first compound 0.000316 µM): 91.4%
viability, T/C (second compound 1 µM, first compound 0.001 µM): 90.6%
viability, T/C (second compound 1 µM, first compound 0.00316 µM): 80.8%
viability, T/C (second compound 1 µM, first compound 0.01 µM): 78.1%
viability, T/C [5]: 43.6%
viability, T/C [6]: 12%
viability, T/C (second compound 3.16 µM, first compound 0.000316 µM): 77.3%
viability, T/C (second compound 3.16 µM, first compound 0.001 µM): 83.7%
viability, T/C (second compound 3.16 µM, first compound 0.00316 µM): 74.3%
viability, T/C (second compound 3.16 µM, first compound 0.01 µM): 68.5%
viability, T/C [7]: 33%
viability, T/C [8]: 11.7%
viability, T/C (second compound 10 µM, first compound 0.000316 µM): 13.4%
viability, T/C (second compound 10 µM, first compound 0.001 µM): 8.89%
viability, T/C (second compound 10 µM, first compound 0.00316 µM): 4.65%
viability, T/C (second compound 10 µM, first compound 0.01 µM): 6.18%
viability, T/C [9]: 3.7%
viability, T/C [10]: 1.73%

IC50 (second compound 0.1 µM): 1.83 nM
IC50 (second compound 0.316 µM): 1.82 nM
IC50 (second compound 1 µM): 1.79 nM
IC50 (second compound 3.16 µM): 1.55 nM
IC50 (second compound 10 µM): 1.42 nM
SMILES: CC(C)CC(NC(=O)C(Cc1ccccc1)NC(=O)c1cnccn1)B(O)O (stereo not given) + CC(CO)NC(=O)c1cc(-c2ccc(Cl)cc2)nn(-c2cnn(C)c2)c1=O
viability, T/C (second compound 0.1 µM, first compound 0.000949 µM): 115%
viability, T/C (second compound 0.1 µM, first compound 0.003 µM): 0.93%
viability, T/C (second compound 0.1 µM, first compound 0.00949 µM): 0.37%
viability, T/C (second compound 0.1 µM, first compound 0.03 µM): 0.65%
viability, T/C (second compound 0.1 µM, first compound 0.0949 µM): 0.65%
viability, T/C (second compound 0.1 µM, first compound 0.3 µM): 0.89%
viability, T/C (second compound 0.316 µM, first compound 0.000949 µM): 113%
viability, T/C (second compound 0.316 µM, first compound 0.003 µM): 1.18%
viability, T/C (second compound 0.316 µM, first compound 0.00949 µM): 0.04%
viability, T/C (second compound 0.316 µM, first compound 0.03 µM): 0.01%
viability, T/C (second compound 0.316 µM, first compound 0.0949 µM): 0.02%
viability, T/C (second compound 0.316 µM, first compound 0.3 µM): 0.12%
viability, T/C (second compound 1 µM, first compound 0.000949 µM): 111%
viability, T/C (second compound 1 µM, first compound 0.003 µM): 0.73%
viability, T/C (second compound 1 µM, first compound 0.00949 µM): 0.02%
viability, T/C (second compound 1 µM, first compound 0.03 µM): 0.22%
viability, T/C (second compound 1 µM, first compound 0.0949 µM): 0.02%
viability, T/C (second compound 1 µM, first compound 0.3 µM): 0.11%
viability, T/C (second compound 3.16 µM, first compound 0.000949 µM): 86.3%
viability, T/C (second compound 3.16 µM, first compound 0.003 µM): 0.7%
viability, T/C (second compound 3.16 µM, first compound 0.00949 µM): 2.8%
viability, T/C (second compound 3.16 µM, first compound 0.03 µM): 0.03%
viability, T/C (second compound 3.16 µM, first compound 0.0949 µM): 0.14%
viability, T/C (second compound 3.16 µM, first compound 0.3 µM): 0.14%
viability, T/C (second compound 10 µM, first compound 0.000949 µM): 76.3%
viability, T/C (second compound 10 µM, first compound 0.003 µM): 1%
viability, T/C (second compound 10 µM, first compound 0.00949 µM): 0.16%
viability, T/C (second compound 10 µM, first compound 0.03 µM): 0.18%
viability, T/C (second compound 10 µM, first compound 0.0949 µM): 0.14%
viability, T/C (second compound 10 µM, first compound 0.3 µM): 0.2%

IC50 (second compound 0.1 µM): 855 nM
IC50 (second compound 0.316 µM): 795 nM
IC50 (second compound 1 µM): 699 nM
IC50 (second compound 3.16 µM): 524 nM
IC50 (second compound 10 µM): 470 nM
SMILES: NS(=O)(=O)OCC1CC(n2ccc3c(NC4CCc5ccccc54)ncnc32)CC1O (stereo not given) + CC(CO)NC(=O)c1cc(-c2ccc(Cl)cc2)nn(-c2cnn(C)c2)c1=O
viability, T/C [1]: 99.8%
viability, T/C [2]: 117%
viability, T/C (second compound 0.1 µM, first compound 0.316 µM): 93%
viability, T/C (second compound 0.1 µM, first compound 1 µM): 43.2%
viability, T/C (second compound 0.1 µM, first compound 3.16 µM): 15.3%
viability, T/C (second compound 0.1 µM, first compound 10 µM): 10.1%
viability, T/C [3]: 90.5%
viability, T/C [4]: 109%
viability, T/C (second compound 0.316 µM, first compound 0.316 µM): 84.4%
viability, T/C (second compound 0.316 µM, first compound 1 µM): 41.5%
viability, T/C (second compound 0.316 µM, first compound 3.16 µM): 12.4%
viability, T/C (second compound 0.316 µM, first compound 10 µM): 7.98%
viability, T/C [5]: 104%
viability, T/C [6]: 102%
viability, T/C (second compound 1 µM, first compound 0.316 µM): 85.4%
viability, T/C (second compound 1 µM, first compound 1 µM): 34.1%
viability, T/C (second compound 1 µM, first compound 3.16 µM): 11.4%
viability, T/C (second compound 1 µM, first compound 10 µM): 9.77%
viability, T/C [7]: 87%
viability, T/C [8]: 97.9%
viability, T/C (second compound 3.16 µM, first compound 0.316 µM): 61.9%
viability, T/C (second compound 3.16 µM, first compound 1 µM): 31.9%
viability, T/C (second compound 3.16 µM, first compound 3.16 µM): 9.85%
viability, T/C (second compound 3.16 µM, first compound 10 µM): 8.37%
viability, T/C [9]: 87.6%
viability, T/C [10]: 82.8%
viability, T/C (second compound 10 µM, first compound 0.316 µM): 53.5%
viability, T/C (second compound 10 µM, first compound 1 µM): 38.6%
viability, T/C (second compound 10 µM, first compound 3.16 µM): 11.7%
viability, T/C (second compound 10 µM, first compound 10 µM): 8.14%
